# From ChEMBL document CHEMBL1141739, “Donnaienin, a New Acetogenin Bearing a Hydroxylated Tetrahydrofuran Ring” (J Nat Prod, 1998)
# Key:
# Type in all cases: functional, cell-based
# KB = assay: Cytotoxicity against human KB cells after 5 days by MTT method; details: 120 h
# [1] = Cytotoxicity against human Bel cells after 5 days by MTT method; details: 120 h
# HCT-8 = assay: Cytotoxicity against human HCT8 cells after 5 days by MTT method; details: HCT-8, 120 h
compound,measurement,setting,value
CCCCCCCCCCCCCC[C@H](O)[C@@H]1C[C@@H](O)[C@@H]([C@@H](O)CC[C@@H](O)CCCCC[C@@H](O)CC2=C[C@H](C)OC2=O)O1 [DONNAIENIN],IC50,KB,> 10 µg/mL
same,IC50,[1],6.7 µg/mL
same,IC50,HCT-8,> 10 µg/mL
